Consider one compound from patent US11529319B2, “Methods and compositions for treating neurological conditions” (priority 2017, dated 2022).

Assay [1] concerns MeCP2 knockout (KO) mouse model of Rett syndrome. Briefly: Rotarod test. The format is in vivo. To be noted: MeCP2 KO mice. The method, then:
Mice were placed on the stationary cylinder and the cylinder then slowly accelerated to 10 revolutions/min. The total time at 10 rpm before a fall from the cylinder was recorded.
For orientation: Falling from the rotarod earlier than controls is read as motor impairment.

Assay [2] concerns hippocampal slices of Tsc2+/- mice. Briefly: CA1 LTP in acute hippocampal slices by multielectrode array. It is filed as cell-based, mouse. The conditions noted are these: 1-2 μM, 4-hour treatment; monitored 55-65 min after induction; vs vehicle. As to the method: Long-term potentiation (LTP), a form of synaptic plasticity elicited in response to excitatory input and thought to represent an electrical correlate of learning and memory in the hippocampus, was examined. Field recordings in the CA1 region of hippocampal slices were used to investigate the effects of Tsc2 mutation on this form of synaptic plasticity. For this purpose, acute hippocampal slices from one-month-old mice were prepared and field recordings in a microelectrode array (MEA) chamber perfused with artificial cerebrospinal fluid (ACSF) were performed. fEPSPs (field excitatory postsynaptic potentials) were recorded in the CA1 region after evoking LTP via stimulation of the Schaffer collaterals (four repetitions of 100 Hz pulses for one second each). The initial slope of the fEPSP was analyzed to assess LTP. However, with a stronger induction protocol as used here, we observed a decrease in LTP, monitored 60 min after induction.

The test system of assay [3] is Mef2c-het mice. Description: Immunohistochemistry and stereological cell counting in hippocampus after chronic treatment. It is filed as in vivo, mouse. From the text: (§1) Mef2c heterozygous knockout (Mef2c-het) mice were created by crossing mice carrying the conventional exon 2-deleted allele of Mef2c (Mef2c^Δ2) with their WT littermates. All procedures for maintaining and using these mice were approved by the Institutional Animal Care and Use Committee (IACUC) at the Sanford Burnham Prebys Medical Discovery Institute. In this study, only male mice were used for the behavioral assays to insure uniformity (either with or without drug treatment). Chronic treatment with memantine, NitroSynapsin (both at 4.6 μmol/kg body weight) or vehicle (PBS) was administered via i.p. injection, twice a day for at least 3 months, starting at ˜2.5 weeks of age. This age was chosen because mice are still juveniles and thus treatment could begin in human at an equivalent stage.
Mice were perfused with PBS buffer and then 2% paraformaldehyde in PBS (PFA).
After perfusion, brains were removed and placed into 2% PFA overnight for post-fixation and then sunk in 30% sucrose in PBS prior to freezing. Cryostat sections were cut at a thickness of 15 μm. Sections were soaked in Antigen Unmasking Solution (Vector) and microwaved for 30 s, followed by permeabilization with 0.25% Triton X-100 in PBS for 15 min. Primary antibodies were incubated for 16 h at 4° C. and fluorescence-conjugated secondary antibodies for 2 h at 25° C. Numerous unstained cells in each field served as an internal control for staining specificity. Primary antibodies included: NeuN (mouse, EMD Millipore), activated caspase-3 (rabbit, Cell Signaling), VGLUT1 (guinea pig, SYSY), VGLUT2 (rabbit, SYSY), VGAT (mouse, SYSY), synaptophysin (mouse, Sigma), GFAP (mouse, Sigma), PCNA (mouse, Santa Cruz), DCX (goat, Santa Cruz). TUNEL assay was performed to assess apoptosis using the Roche In Situ Cell Death Detection Kit per vender's instruction. The number of cells positive or percent area occupied by NeuN, activated caspase-3, TUNEL, GFAP, PCNA, or DCX was counted in specific brain regions using an optical dissector, or estimated by quantitative confocal immunohistochemistry or optical density, as described previously.

Assay [4] concerns Tsc2+/- mice. Briefly: Quantitative confocal immunohistochemistry of synaptophysin (SY38) in hippocampus. The format is in vivo, mouse. To be noted: i.p. loading 92 μmol/kg then 4.6 μmol/kg twice daily, two and a half days. From the text: To determine the effects of […] antagonists on the brain histology of Tsc2^+/- mice, quantitative confocal immunohistochemistry was used to analyze coronal brain slices from 3-month-old wild-type (WT) and Tsc2^+/- mice that had been treated for two and a half days with vehicle, memantine or NitroSynapsin. Tsc2+/- mice on the C57Bl/6J background received via the intraperitoneal route either vehicle or a loading dose of 92 μmol/kg of memantine or NitroSynapsin, followed by 4.6 μmol/kg of drug twice daily for two-and-a-half-days, with the last dose 3 hours prior to the behavioral training session (for a total of five drug injections). This dosing regimen yields an effective concentration of drug at NMDARs in the brain of 1-10 μM.

Assay [5] concerns Tsc2+/- mice. Briefly: Fear conditioning test. It is filed as in vivo, mouse. The conditions noted are these: two-and-a-half-day treatment, last dose 3 hours before training. From the text:
To determine the effects of eNMDAR antagonists on the brain histology of Tsc2^+/− mice, quantitative confocal immunohistochemistry was used to analyze coronal brain slices from 3-month-old wild-type (WT) and Tsc2^+/− mice that had been treated for two and a half days with vehicle, memantine or NitroSynapsin. Tsc2+/− mice on the C57Bl/6J background received via the intraperitoneal route either vehicle or a loading dose of 92 μmol/kg of memantine or NitroSynapsin, followed by 4.6 μmol/kg of drug twice daily for two-and-a-half-days, with the last dose 3 hours prior to the behavioral training session (for a total of five drug injections). This dosing regimen yields an effective concentration of drug at NMDARs in the brain of 1-10 μM.
Fear conditioning tests were performed on three-month-old Tsc2^+/+ and Tsc2^+/− mice to explore the effects of eNMDAR antagonists on anxiety, and learning and memory deficits in Tsc2^+/− mice. Vehicle, memantine or NitroSynapsin were administered for two and a half days, with the last dose of drug occurring 3-hours prior to the first training session. […] Freezing time of three-month-old WT and Tsc2^+/− transgenic mice treated with vehicle, memantine or NitroSynapsin in fear-conditioning trials. […] Values are mean+s.e.m. (n=7-12 mice per group). […]

For assay [6], the system named is Mef2c-het mice. Briefly: Open field test (locomotor activity). It is filed as in vivo, mouse. To be noted: chronic treatment, 30-minute test.
Excerpt: as §1
Locomotor activity was measured in polycarbonate cages (42×22×20 cm) placed into frames (25.5×47 cm) mounted with two levels of photocell beams at 2 and 7 cm above the bottom of the cage (San Diego Instruments, San Diego, Calif.). These two sets of beams allowed recording of both horizontal (locomotion) and vertical (rearing) behavior. A thin layer of bedding material was applied to the bottom of the cage. Mice were tested for 30 or 120 min depending on the exact test.

Entries after “also recorded” stand apart in the source; their conditions may differ.

For `CCC12CC3(N)CC(CC)(C1)CC(O[N+](=O)[O-])(C3)C2` [NitroSynapsin], the “rotarod performance (time at 10 rpm before a fall)” value in assay [1] was “improved motor behavior; also recorded: significantly improved motor performance”. In addition, the “CA1 LTP in Tsc2+/- hippocampal slices” value in assay [2] is “all improved; also recorded: improved LTP; also recorded: able to reverse deficits in synaptic plasticity; also recorded: improvement of LTP”. Besides, in the assay on Mef2c-het mice [3], the “PV-immunoreactive synapses (% area)” value was “significantly increased; also recorded: significantly ameliorated”; the “TUNEL-positive neurons, hippocampal CA3” value is given as “reduced back to normal; also recorded: ameliorated in Het/N mice”; the “VGAT immunoreactivity in hippocampus” value was “normalized; also recorded: rescue”; the “VGLUT1 immunoreactivity in hippocampus” value is “unaltered”. Also, in the assay with Mef2c-het mice [3], the “VGLUT2 immunoreactivity in hippocampus” value is “normalized; also recorded: rescue”; the “activated caspase-3-positive neurons, hippocampal CA3” value is recorded as “reduced back to normal; also recorded: ameliorated in Het/N mice”; the “number of GFAP+ cells (astrocytes) in hippocampus” value is “normalized the number of GFAP+ cells; also recorded: restored to WT levels”; the “ratio of VGLUT1/VGAT” value is “normalized; also recorded: rescue”. Also, the “ratio of VGLUT2/VGAT” value in the assay on Mef2c-het mice [3] is “normalized; also recorded: rescue”. The “total number of NeuN+ cells in hippocampus” value with Mef2c-het mice [3] (optical dissector) is given as “significantly greater than in Het/V mice; also recorded: significantly greater effect of NitroSynapsin over memantine; also recorded: significantly greater than in vehicle (V)-treated mice; also recorded: rescue”. In the assay on Tsc2+/- mice [4], the “synaptophysin (SY38) staining in hippocampus (% area)” value is “all improved; also recorded: significantly more staining; also recorded: reversed the synaptic loss; also recorded: raised the synaptic signal to WT levels”. For the same compound, the “context discrimination (freezing time, training vs novel context)” value with Tsc2+/- mice [5] was “all improved; also recorded: normalizing context discrimination; also recorded: improved the ability to discriminate context in Tsc2^+/− mice to normal WT levels; also recorded: normalized context discrimination”. In addition, the “open field center time / center activity” value with Mef2c-het mice [6] is recorded as “rescued by chronic treatment with NitroSynapsin; also recorded: rescued by treatment with N”.
